Source: patent US20250145599A1, “CERTAIN CHEMICAL ENTITIES, COMPOSITIONS, AND METHODS” (Retune Pharma Inc., priority 2022, published 2025)

Target: IGF-1R (Homo sapiens, UniProt P08069)
Assay: IGF-1R biochemical assay (ADP-Glo)
Conditions: read-out: IGF1R IC50
Experimental: The inhibitory activity against IGF-1R was measured using ADP-Glo assay. The percent (%) inhibition at each concentration of compound is calculated based on and relative to the luminescence signal in the Max and Min control wells contained within each assay plate. The Max control wells contain enzyme and substrate as 0% inhibition, and the Min control wells only contain substrate without enzyme as 100% inhibition. The concentrations and % inhibition values for tested compounds are plotted and the concentration of compound required for 50% inhibition (IC50) is determined with a four-parameter logistic dose response equation.
Table 3 provides IC50 data of representative compounds against IGF-1R using ADP-Glo assay. The IC50 data are designated within the following ranges: A: ≤0.10 μM, B: >0.10 μM to ≤1 μM, C: >1 μM to ≤20 μM

Sequence of IGF-1R (P08069 31-1367): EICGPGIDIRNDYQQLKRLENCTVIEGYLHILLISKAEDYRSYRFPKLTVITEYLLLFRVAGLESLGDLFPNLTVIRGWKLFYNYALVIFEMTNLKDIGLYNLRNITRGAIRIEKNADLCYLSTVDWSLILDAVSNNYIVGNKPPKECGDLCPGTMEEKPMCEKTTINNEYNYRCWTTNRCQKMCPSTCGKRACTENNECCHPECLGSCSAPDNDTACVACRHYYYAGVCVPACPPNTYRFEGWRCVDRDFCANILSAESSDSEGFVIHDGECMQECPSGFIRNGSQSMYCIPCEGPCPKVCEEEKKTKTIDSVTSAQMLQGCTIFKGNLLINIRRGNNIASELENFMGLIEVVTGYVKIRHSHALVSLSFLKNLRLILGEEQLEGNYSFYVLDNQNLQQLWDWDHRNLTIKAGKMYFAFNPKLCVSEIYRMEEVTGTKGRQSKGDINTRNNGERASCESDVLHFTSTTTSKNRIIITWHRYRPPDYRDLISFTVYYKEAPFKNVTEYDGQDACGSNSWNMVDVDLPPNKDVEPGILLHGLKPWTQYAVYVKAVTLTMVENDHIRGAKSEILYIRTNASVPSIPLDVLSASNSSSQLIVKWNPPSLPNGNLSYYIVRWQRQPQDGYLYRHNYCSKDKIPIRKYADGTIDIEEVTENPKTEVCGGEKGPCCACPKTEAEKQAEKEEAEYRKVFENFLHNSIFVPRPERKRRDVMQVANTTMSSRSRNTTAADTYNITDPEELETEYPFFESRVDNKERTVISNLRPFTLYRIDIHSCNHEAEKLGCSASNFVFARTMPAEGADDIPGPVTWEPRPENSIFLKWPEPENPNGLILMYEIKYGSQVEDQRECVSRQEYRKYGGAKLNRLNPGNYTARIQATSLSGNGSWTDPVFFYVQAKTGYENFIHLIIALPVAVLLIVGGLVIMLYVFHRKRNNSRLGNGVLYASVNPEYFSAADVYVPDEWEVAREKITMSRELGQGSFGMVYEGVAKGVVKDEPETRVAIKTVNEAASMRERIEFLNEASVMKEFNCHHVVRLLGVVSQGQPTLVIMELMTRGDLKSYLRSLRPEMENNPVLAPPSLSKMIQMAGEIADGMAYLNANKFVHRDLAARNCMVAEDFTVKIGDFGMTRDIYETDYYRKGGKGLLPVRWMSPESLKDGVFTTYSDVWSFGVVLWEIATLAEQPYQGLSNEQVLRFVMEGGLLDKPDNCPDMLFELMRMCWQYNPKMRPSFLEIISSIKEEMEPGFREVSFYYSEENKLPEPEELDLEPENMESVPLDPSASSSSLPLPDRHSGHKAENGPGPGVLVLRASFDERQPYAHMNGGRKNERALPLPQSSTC

SMILES | IC50 [nM]
NC(=O)c1c(-c2ccc3ccc(-c4ccccc4)nc3c2)nn(C2CC(=O)C2)c1N [Example C001, 5-amino-1-(3-oxocyclobutyl)-3-(2-phenylquinolin-7-yl)-1H-pyrazole-4-carboxamide] | 1000 to 20000
NC(=O)c1c(-c2ccc3ccc(-c4ccccc4)nc3c2)nn(C2CCNCC2)c1N [Example C002, 5-amino-3-(2-phenylquinolin-7-yl)-1-(piperidin-4-yl)-1H-pyrazole-4-carboxamide] | 100 to 1000
NC(=O)c1c(-c2ccc3ccc(-c4ccccc4)nc3c2)nn(C2CCN(C(N)=O)CC2)c1N [Example C003, 4-(5-amino-4-carbamoyl-3-(2-phenylquinolin-7-yl)-1H-pyrazol-1-yl)piperidine-1-carboxamide] | 1000 to 20000
COC(=O)N1CCC(n2nc(-c3ccc4ccc(-c5ccccc5)nc4c3)c(C(N)=O)c2N)CC1 [Example C004, methyl 4-(5-amino-4-carbamoyl-3-(2-phenylquinolin-7-yl)-1H-pyrazol-1-yl)piperidine-1-carboxylate] | 1000 to 20000
C[C@]1(O)C[C@H](n2nc(-c3ccc4ccc(-c5ccccc5)nc4c3)c(C(N)=O)c2N)C1 [Example C006, 5-amino-1-((1r,3r)-3-hydroxy-3-methylcyclobutyl)-3-(2-phenylquinolin-7-yl)-1H-pyrazole-4-carboxamide] | 100 to 1000
CN1CCC(n2nc(-c3ccc4ccc(-c5ccccc5)nc4c3)c(C(N)=O)c2N)CC1 [Example C007, 5-amino-1-(1-methylpiperidin-4-yl)-3-(2-phenylquinolin-7-yl)-1H-pyrazole-4-carboxamide] | 1000 to 20000
NC(=O)c1c(-c2ccc3ccc(-c4ccccc4)nc3c2)nn(C2CCN(CCO)CC2)c1N [Example C008, 5-amino-1-(1-(2-hydroxyethyl)piperidin-4-yl)-3-(2-phenylquinolin-7-yl)-1H-pyrazole-4-carboxamide] | 100 to 1000
NC(=O)c1c(-c2ccc3ccc(-c4ccccc4)nc3c2)nn([C@H]2C[C@@H](O)C2)c1N [Example C009, 5-amino-1-((1s,3s)-3-hydroxycyclobutyl)-3-(2-phenylquinolin-7-yl)-1H-pyrazole-4-carboxamide] | 1000 to 20000
CC(=O)N1CCC(n2nc(-c3ccc4ccc(-c5ccccc5)nc4c3)c(C(N)=O)c2N)CC1 [Example C010, 1-(1-acetylpiperidin-4-yl)-5-amino-3-(2-phenylquinolin-7-yl)-1H-pyrazole-4-carboxamide] | 1000 to 20000
CCOC(=O)[C@H]1C[C@@H](n2nc(-c3ccc4ccc(-c5ccccc5)nc4c3)c(C(N)=O)c2N)C1 [Example C011, ethyl (1s,3s)-3-(5-amino-4-carbamoyl-3-(2-phenylquinolin-7-yl)-1H-pyrazol-1-yl)cyclobutane-1-carboxylate] | 100 to 1000
NC(=O)c1c(-c2ccc3ccc(-c4ccccc4)nc3c2)nn([C@H]2C[C@H](CN3CCC3)C2)c1N [Example C014, 5-amino-1-((1r,3r)-3-(azetidin-1-ylmethyl)cyclobutyl)-3-(2-phenylquinolin-7-yl)-1H-pyrazole-4-carboxamide] | ≤ 100
NC(=O)c1c(-c2ccc3ccc(-c4ccccc4)nc3c2)nn([C@H]2C[C@@H](CN3CCNCC3)C2)c1N [Example C015, 5-amino-3-(2-phenylquinolin-7-yl)-1-((1s,3s)-3-(piperazin-1-ylmethyl)cyclobutyl)-1H-pyrazole-4-carboxamide] | ≤ 100
NC(=O)c1c(-c2ccc3ccc(-c4ccccc4)nc3c2)nn([C@H]2C[C@H](CN3CCNCC3)C2)c1N [Example C016, 5-amino-3-(2-phenylquinolin-7-yl)-1-((1r,3r)-3-(piperazin-1-ylmethyl)cyclobutyl)-1H-pyrazole-4-carboxamide] | ≤ 100
NC(=O)c1c(-c2ccc3ccc(-c4ccccc4)nc3c2)nn([C@H]2C[C@@H](C(=O)O)C2)c1N [Example C017, (1s,3s)-3-(5-amino-4-carbamoyl-3-(2-phenylquinolin-7-yl)-1H-pyrazol-1-yl)cyclobutane-1-carboxylic acid] | 1000 to 20000
CN1CCN(C[C@H]2C[C@@H](n3nc(-c4ccc5ccc(-c6ccccc6)nc5c4)c(C(N)=O)c3N)C2)CC1 [Example C019, 5-amino-1-((1s,3s)-3-((4-methylpiperazin-1-yl)methyl)cyclobutyl)-3-(2-phenylquinolin-7-yl)-1H-pyrazole-4-carboxamide] | 100 to 1000
CCOC(=O)[C@]1(C)C[C@@H](n2nc(-c3ccc4ccc(-c5ccccc5)nc4c3)c(C(N)=O)c2N)C1 [Example C020, ethyl (1r,3r)-3-(5-amino-4-carbamoyl-3-(2-phenylquinolin-7-yl)-1H-pyrazol-1-yl)-1-methylcyclobutane-1-carboxylate] | 100 to 1000
CN1CCN(C[C@H]2C[C@H](n3nc(-c4ccc5ccc(-c6ccccc6)nc5c4)c(C(N)=O)c3N)C2)CC1 [Example C021, 5-amino-1-((1r,3r)-3-((4-methylpiperazin-1-yl)methyl)cyclobutyl)-3-(2-phenylquinolin-7-yl)-1H-pyrazole-4-carboxamide] | ≤ 100

SMILES | IC50 [nM]
C[C@]1(C(=O)O)C[C@H](n2nc(-c3ccc4ccc(-c5ccccc5)nc4c3)c(C(N)=O)c2N)C1 [Example C022, (1r,3r)-3-(5-amino-4-carbamoyl-3-(2-phenylquinolin-7-yl)-1H-pyrazol-1-yl)-1-methylcyclobutane-1-carboxylic acid] | 1000 to 20000
NC(=O)c1c(-c2ccc3ccc(-c4ccccc4)nc3c2)nn(C2CC(N3CCOCC3)C2)c1N (stereo not drawn) [Example C023, 5-amino-1-(3-morpholinocyclobutyl)-3-(2-phenylquinolin-7-yl)-1H-pyrazole-4-carboxamide] | ≤ 100
CC(C)n1nc(-c2ccc3ccc(-c4ccccc4)nc3c2)c(C(N)=O)c1N [Example C024, 5-amino-1-isopropyl-3-(2-phenylquinolin-7-yl)-1H-pyrazole-4-carboxamide] | 100 to 1000
NC(=O)c1c(-c2ccc3ccc(-c4ccccc4)nc3c2)nn(C2CC(N3CCNCC3)C2)c1N (stereo not drawn) [Example C025, 5-amino-3-(2-phenylquinolin-7-yl)-1-(3-(piperazin-1-yl)cyclobutyl)-1H-pyrazole-4-carboxamide] | ≤ 100
CN1CCN(C2CC(n3nc(-c4ccc5ccc(-c6ccccc6)nc5c4)c(C(N)=O)c3N)C2)CC1 (stereo not drawn) [Example C026, 5-amino-1-(3-(4-methylpiperazin-1-yl)cyclobutyl)-3-(2-phenylquinolin-7-yl)-1H-pyrazole-4-carboxamide] | ≤ 100
NC(=O)c1c(-c2ccc3ccc(-c4ccccc4)nc3c2)nn(C2CC(N3CCC3)C2)c1N (stereo not drawn) [Example C027, 5-amino-1-(3-(azetidin-1-yl)cyclobutyl)-3-(2-phenylquinolin-7-yl)-1H-pyrazole-4-carboxamide] | 100 to 1000
C[C@]1(O)C[C@@H](n2nc(-c3ccc4ccc(-c5ccccc5)nc4c3F)c(C(N)=O)c2N)C1 [Example C028, 5-amino-3-(8-fluoro-2-phenylquinolin-7-yl)-1-((1s,3s)-3-hydroxy-3-methylcyclobutyl)-1H-pyrazole-4-carboxamide] | ≤ 100
NC(=O)c1c(-c2ccc3ccc(-c4ccccc4)nc3c2)nn(C2COC2)c1N [Example C029, 5-amino-1-(oxetan-3-yl)-3-(2-phenylquinolin-7-yl)-1H-pyrazole-4-carboxamide] | 1000 to 20000
NC(=O)c1c(-c2ccc3ccc(-c4ccccc4)nc3c2)nn(C2CC(F)(F)C2)c1N [Example C030, 5-amino-1-(3,3-difluorocyclobutyl)-3-(2-phenylquinolin-7-yl)-1H-pyrazole-4-carboxamide] | 100 to 1000
NC(=O)c1c(-c2ccc3ccc(-c4ccccc4)nc3c2)nn2c1NCC(C(N)=O)C2 (stereo not drawn) [Example C031] | 1000 to 20000
C[C@]1(O)C[C@@H](n2nc(-c3ccc4ccc(-c5ccccc5F)nc4c3)c(C(N)=O)c2N)C1 [Example C037, 5-amino-3-(2-(2-fluorophenyl)quinolin-7-yl)-1-((1s,3s)-3-hydroxy-3-methylcyclobutyl)-1H-pyrazole-4-carboxamide] | ≤ 100
C[C@]1(O)C[C@@H](n2nc(-c3ccc4ccc(-c5ccccc5Br)nc4c3)c(C(N)=O)c2N)C1 [Example C038, 5-amino-3-(2-(2-bromophenyl)quinolin-7-yl)-1-((ls,3s)-3-hydroxy-3-methylcyclobutyl)-1H-pyrazole-4-carboxamide] | ≤ 100
C[C@]1(O)C[C@@H](n2nc(-c3ccc4ccc(-c5ccc(F)cc5)nc4c3)c(C(N)=O)c2N)C1 [Example C039, 5-amino-3-(2-(4-fluorophenyl)quinolin-7-yl)-1-((1s,3s)-3-hydroxy-3-methylcyclobutyl)-1H-pyrazole-4-carboxamide] | 100 to 1000
C[C@]1(O)C[C@H](n2nc(-c3ccc4ccc(-c5ccccc5F)nc4c3)c(C(N)=O)c2N)C1 [Example C040, 5-amino-3-(2-(2-fluorophenyl)quinolin-7-yl)-1-((1r,3r)-3-hydroxy-3-methylcyclobutyl)-1H-pyrazole-4-carboxamide] | ≤ 100
C[C@]1(O)C[C@@H](n2nc(-c3ccc4ccc(-c5cccc(F)c5)nc4c3)c(C(N)=O)c2N)C1 [Example C041, 5-amino-3-(2-(3-fluorophenyl)quinolin-7-yl)-1-((1s,3s)-3-hydroxy-3-methylcyclobutyl)-1H-pyrazole-4-carboxamide] | ≤ 100
C[C@]1(O)C[C@@H](n2nc(-c3ccc4c(O)cc(-c5ccccc5)nc4c3F)c(C(N)=O)c2N)C1 [Example C042, 5-amino-3-(8-fluoro-4-hydroxy-2-phenylquinolin-7-yl)-1-((1s,3s)-3-hydroxy-3-methylcyclobutyl)-1H-pyrazole-4-carboxamide] | 1000 to 20000
